Test results as given in patent US9346815B2, “5-chloro-2-difluoromethoxyphenyl pyrazolopyrimidine compounds, compositions and methods of use thereof” (Genentech, Inc., priority 2014, dated 2016).
Structures can show the parent of a compound that is named as a salt.

Key:
[1] = target: isolated recombinant JAK1 kinase domain (Homo sapiens (Human), UniProt P23458); assay: JAK1 enzyme assay (Caliper LabChip, peptide phosphorylation); format: biochemical; details: isolated recombinant JAK1 kinase domain, 25 μM ATP
[2] = target: isolated recombinant JAK2 kinase domain (Homo sapiens (Human), UniProt O60674); assay: JAK2 enzyme assay (Caliper LabChip, peptide phosphorylation); format: biochemical; details: 25 μM ATP
[3] = test system: JAK1-dependent STAT6 phosphorylation downstream of IL-13 stimulation in TF-1 human erythroleukemia cells; assay: JAK1 pathway assay in TF-1 cells (IL-13-pSTAT6, MSD); format: cell-based; details: Homo sapiens, TF-1, TF-1 cells, read-out: IL13-pSTAT6 EC50_TF-1
Method in brief: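 TF-1 cells are starved of GM-CSF overnight and run in serum-free medium, while BEAS-2B cells stay in complete growth medium. Inhibition of STAT6 phosphorylation is measured by MSD.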

Sequence of isolated recombinant JAK1 kinase domain (P23458 875-1153): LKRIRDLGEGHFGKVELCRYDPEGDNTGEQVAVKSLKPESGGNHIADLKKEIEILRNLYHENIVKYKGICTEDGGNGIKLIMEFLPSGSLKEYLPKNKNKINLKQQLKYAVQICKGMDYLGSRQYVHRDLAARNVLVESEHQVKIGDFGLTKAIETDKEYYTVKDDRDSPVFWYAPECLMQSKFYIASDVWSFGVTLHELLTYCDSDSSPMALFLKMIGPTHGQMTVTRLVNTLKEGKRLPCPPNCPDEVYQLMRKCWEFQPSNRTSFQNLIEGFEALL
Sequence of isolated recombinant JAK2 kinase domain (O60674 849-1124): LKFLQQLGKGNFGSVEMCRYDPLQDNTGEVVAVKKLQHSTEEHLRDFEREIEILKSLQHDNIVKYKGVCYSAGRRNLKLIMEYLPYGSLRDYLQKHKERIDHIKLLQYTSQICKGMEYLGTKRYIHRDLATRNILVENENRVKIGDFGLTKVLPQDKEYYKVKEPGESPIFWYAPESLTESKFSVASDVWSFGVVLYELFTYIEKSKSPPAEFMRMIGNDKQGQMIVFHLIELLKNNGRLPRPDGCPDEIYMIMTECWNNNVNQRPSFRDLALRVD

| Ki [1] | Ki [2] | EC50 [3] | Structure (SMILES) |
| --- | --- | --- | --- |
| 1.1 nM | 2.91 nM | 32.3 nM | CN(Cc1ccc2ccccc2c1)C1CCN(C(=O)Cn2cc(NC(=O)c3cnn4cccnc34)c(-c3cc(Cl)ccc3OC(F)F)n2)CC1 [Example 130, N-[3-[5-chloro-2-(difluoromethoxy)phenyl]-1-[2-[4-[methyl(2-naphthylmethyl)amino]-1-piperidyl]-2-oxo-ethyl]pyrazol-4-yl]pyrazolo[1,5-a]pyrimidine-3-carboxamide] |
| 1.36 nM | 0.86 nM | 16.5 nM | O=C(Nc1sc(N2CC(N3CCCCC3)C2)nc1-c1cc(Cl)ccc1OC(F)F)c1cnn2cccnc12 [Example 195, N-[4-[5-chloro-2-(difluoromethoxy)phenyl]-2-[3-(1-piperidyl)azetidin-1-yl]thiazol-5-yl]pyrazolo[1,5-a]pyrimidine-3-carboxamide] |
| 1.19 nM | 2.15 nM | 30.6 nM | CN(Cc1cccc(Oc2ccccc2)c1)C1CCN(C(=O)Cn2cc(NC(=O)c3cnn4cccnc34)c(-c3cc(Cl)ccc3OC(F)F)n2)CC1 [Example 113, N-[3-[5-chloro-2-(difluoromethoxy)phenyl]-1-[2-[4-[methyl-[(3-phenoxyphenyl)methyl]amino]-1-piperidyl]-2-oxo-ethyl]pyrazol-4-yl]pyrazolo[1,5-a]pyrimidine-3-carboxamide] |
| 0.99 nM | 0.74 nM | 32 nM | CC(C)(O)CCN1C[C@@H]2CN(C(=O)Cn3cc(NC(=O)c4cnn5cccnc45)c(-c4cc(Cl)ccc4OC(F)F)n3)C[C@@H]2C1 [Example 50, N-[1-[2-[(3aR,6aS)-2-(3-hydroxy-3-methyl-butyl)-1,3,3a,4,6,6a-hexahydropyrrolo[3,4-c]pyrrol-5-yl]-2-oxo-ethyl]-3-[5-chloro-2-(difluoromethoxy)phenyl]pyrazol-4-yl]pyrazolo[1,5-a]pyrimidine-3-carboxamide] |
| 1.65 nM | 0.38 nM | 36.3 nM | CC(=O)NCCCN1CCC(n2cc(NC(=O)c3cnn4cccnc34)c(-c3cc(Cl)ccc3OC(F)F)n2)CC1 [Example 142, Pyrazolo[1,5-a]pyrimidine-3-carboxylic acid [1-[1-(3-acetylaminopropyl)piperidin-4-yl]-3-(5-chloro-2-difluoromethoxyphenyl)-1H-pyrazol-4-yl]amide hydrochloride] |
| 0.92 nM | 2.03 nM | 55.6 nM | O=C(Nc1cn(CC(=O)N2CCC(NCCc3ccc(Cl)cc3)CC2)nc1-c1cc(Cl)ccc1OC(F)F)c1cnn2cccnc12 [Example 92, N-[3-[5-chloro-2-(difluoromethoxy)phenyl]-1-[2-[4-[2-(4-chlorophenyl)ethylamino]-1-piperidyl]-2-oxo-ethyl]pyrazol-4-yl]pyrazolo[1,5-a]pyrimidine-3-carboxamide] |
| 1.55 nM | 2.38 nM | 8.6 nM | CN1CCCN(C(=O)Cn2cc(NC(=O)c3cnn4cccnc34)c(-c3cc(Cl)ccc3OC(F)F)n2)CC1 [Example 239, N-[3-[5-chloro-2-(difluoromethoxy)phenyl]-1-[2-(4-methyl-1,4-diazepan-1-yl)-2-oxo-ethyl]pyrazol-4-yl]pyrazolo[1,5-a]pyrimidine-3-carboxamide] |
| 1.63 nM | 0.77 nM | 117 nM | O=C(Nc1sc(-c2ccncc2)nc1-c1cc(Cl)ccc1OC(F)F)c1cnn2cccnc12 [Example 254, N-[4-[5-chloro-2-(difluoromethoxy)phenyl]-2-(4-pyridyl)thiazol-5-yl]pyrazolo[1,5-a]pyrimidine-3-carboxamide] |
| 0.75 nM | 1.15 nM | 149 nM | O=C(Nc1cn(CC(=O)N2CCC(NCCc3ccc(O)cc3)CC2)nc1-c1cc(Cl)ccc1OC(F)F)c1cnn2cccnc12 [Example 91, N-[3-[5-chloro-2-(difluoromethoxy)phenyl]-1-[2-[4-[2-(4-hydroxyphenyl)ethyl-amino]-1-piperidyl]-2-oxo-ethyl]pyrazol-4-yl]pyrazolo[1,5-a]pyrimidine-3-carboxamide] |
| 1.3 nM | 1.17 nM | 15 nM | CC(C)N1C[C@H]2CN(C(=O)Cn3cc(NC(=O)c4cnn5cccnc45)c(-c4cc(Cl)ccc4OC(F)F)n3)C[C@H]2C1 [Example 12, N-[1-[2-[(3aS,6aR)-2-isopropyl-1,3,3a,4,6,6a-hexahydropyrrolo[3,4-c]pyrrol-5-yl]-2-oxo-ethyl]-3-[5-chloro-2-(difluoromethoxy)phenyl]pyrazol-4-yl]pyrazolo[1,5-a]pyrimidine-3-carboxamide] |
| 1.1 nM | 1.82 nM | 15.8 nM | CN(CC(F)(F)F)C1CCN(C(=O)C2CCN(c3nc(-c4cc(Cl)ccc4OC(F)F)c(NC(=O)c4cnn5cccnc45)s3)CC2)CC1 [Example 202, N-[4-[5-chloro-2-(difluoromethoxy)phenyl]-2-[4-[4-[methyl(2,2,2-trifluoroethyl)amino]piperidine-1-carbonyl]-1-piperidyl]thiazol-5-yl]pyrazolo[1,5-a]pyrimidine-3-carboxamide] |
| 0.76 nM | 0.18 nM | 20.4 nM | Nc1nn2cccnc2c1C(=O)Nc1cn(C2CCN(CCCC(=O)N3CCCCC3)CC2)nc1-c1cc(Cl)ccc1OC(F)F [Example 143, 2-amino-N-[3-[5-chloro-2-(difluoromethoxy)phenyl]-1-[1-[4-oxo-4-(1-piperidyl)butyl]-4-piperidyl]pyrazol-4-yl]pyrazolo[1,5-a]pyrimidine-3-carboxamide] |
| 0.58 nM | 0.13 nM | 4.8 nM | CC(=O)N1CCC(CN2CCC(n3cc(NC(=O)c4c(N)nn5cccnc45)c(-c4cc(Cl)ccc4OC(F)F)n3)CC2)CC1 [Example 173, N-[1-[1-[(1-acetyl-4-piperidyl)methyl]-4-piperidyl]-3-[5-chloro-2-(difluoromethoxy)phenyl]pyrazol-4-yl]-2-amino-pyrazolo[1,5-a]pyrimidine-3-carboxamide] |
| 1.13 nM | 1.82 nM | 12.5 nM | CN1CCC2(CC1)CN(C(=O)Cn1cc(NC(=O)c3cnn4cccnc34)c(-c3cc(Cl)ccc3OC(F)F)n1)C2 [Example 216, N-[3-[5-chloro-2-(difluoromethoxy)phenyl]-1-[2-(7-methyl-2,7-diazaspiro[3.5]nonan-2-yl)-2-oxo-ethyl]pyrazol-4-yl]pyrazolo[1,5-a]pyrimidine-3-carboxamide] |
| 0.64 nM | 0.25 nM | 36.7 nM | CN(C)C1CCN(C(=O)Cn2cc(NC(=O)c3c(N)nn4cccnc34)c(-c3cc(Cl)ccc3OC(F)F)n2)C1 (stereo not drawn) [Example 136, 2-amino-N-[3-[5-chloro-2-(difluoromethoxy)phenyl]-1-[2-[3-(dimethylamino)pyrrolidin-1-yl]-2-oxo-ethyl]pyrazol-4-yl]pyrazolo[1,5-a]pyrimidine-3-carboxamide] |
| 7.74 nM | 2.65 nM | 68.5 nM | CN(C)C1CCN(Cc2nc(-c3cc(Cl)ccc3OC(F)F)c(NC(=O)c3cnn4cccnc34)s2)CC1 [Example 260, Pyrazolo[1,5-a]pyrimidine-3-carboxylic acid [4-(5-chloro-2-difluoromethoxy-phenyl)-2-(4-dimethylamino-piperidin-1-ylmethyl)-thiazol-5-yl]-amide] |
